Earlier results as cited in US7255813B2, “NADH/NADPH-containing compound” (Nutropia Ernahrungsmedizinische Forschungs GmbH, priority 2002, dated 2007).

Details: versus synthetic tocopherols

tocotrienol
antioxidative potential, times higher than that of synthetic tocopherols: 50 to 1000 times
